Measured values: patent publication US7150974B1, “Parathyroid hormone receptor binding method” (The General Hospital Corporation, priority 1991, dated 2006)

Assays:
Assay type in all cases: cell-based
[1] = target: T1, human kidney PTH/PTHrP receptor (Homo sapiens, UniProt Q03431, L389Q); assay: cAMP accumulation, COS-7 cells expressing human kidney receptor; settings: COS-7 cells expressing human receptor, FIG. 18
T1 construct: The full-length human kidney PTH/PTHrP receptor cDNA, HKrk, was constructed using the BamHI/PvuII fragment of PCR clone #2 and HK-2; expressed in transfected cells; host or cells: COS-7 cells, transient (DEAE/Dextran), pcDNAI
T1 sequence (Q03431 27-593 L389Q): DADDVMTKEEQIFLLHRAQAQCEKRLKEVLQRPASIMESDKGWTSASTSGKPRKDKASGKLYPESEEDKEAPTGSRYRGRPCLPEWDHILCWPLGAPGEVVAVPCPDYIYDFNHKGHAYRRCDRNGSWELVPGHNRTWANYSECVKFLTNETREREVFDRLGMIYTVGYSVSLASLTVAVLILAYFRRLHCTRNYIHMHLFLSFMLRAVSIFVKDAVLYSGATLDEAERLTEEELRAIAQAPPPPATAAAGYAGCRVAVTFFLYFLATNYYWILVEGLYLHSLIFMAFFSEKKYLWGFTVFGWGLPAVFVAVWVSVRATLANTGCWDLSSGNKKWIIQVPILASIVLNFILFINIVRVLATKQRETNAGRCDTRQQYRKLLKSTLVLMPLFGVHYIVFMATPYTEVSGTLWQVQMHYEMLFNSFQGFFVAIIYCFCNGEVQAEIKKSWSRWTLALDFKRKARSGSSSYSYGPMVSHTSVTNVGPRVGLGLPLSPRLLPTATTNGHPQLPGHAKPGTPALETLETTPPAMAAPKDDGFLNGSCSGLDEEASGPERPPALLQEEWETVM
Protocol: (§1) Intracellular cAMP accumulation was measured as described previously (Abou-Samra et al., J. Biol. Chem. 262:1129, 1986). Cells in 24-well plates were rinsed with culture medium containing 0.1% BSA and 2 mM IBMX. […] The supernatant was removed and the cells immediately frozen by placing the whole plate in dry ice powder. Intracellular cAMP was extracted by thawing the cells in 1 ml of 50 mM HCl and analyzed by a specific radioimmunoassay using an anti-cAMP antibody (e.g., Sigma, St. Louis, Mo.). A cAMP analog (2′-O-monosuccinyl-adenosine 3′:5′-cyclic monophosphate tyrosyl methyl ester, obtained from Sigma) which was used a tracer for cAMP was iodinated by the chloramine T method. Free iodine was removed by adsorbing the iodinated cAMP analog onto a C18 Sep-pak cartridge (Waters, Milford, Mass.). After washing with dH2O, the iodinated cAMP analog was eluted from the Sep-pak Cartridge with 40% acetonitrille (ACN) and 0.1% trifluoroacetic acid (TFA). The iodinated cAMP analog was lyophilized, reconstituted in 1 ml 0.1% TFA, and injected into a C18 reverse phase HPLC column (Waters). The column was equilibrated with 10% ACN in 0.1% TFA, and eluted with gradient of 10-30% ACN in 0.1% TFA. This allows separation of the mono-iodinated cAMP analog from the non-iodinated cAMP analog. […] The standard used for the assay, adenosine 3′:5′-cyclic monophosphate, was purchased from Sigma. […]

[2] = target: T1, human kidney PTH/PTHrP receptor; assay: Intracellular free calcium, COS-7 cells expressing human receptor
Protocol: Details of the methodology are:
Coverslips plated with COS cells were incubated in Fura-2 AM loading buffer containing, in mM: HEPES (N-[2-Hydroxyethyl]piperazine-N′-[2-ethanesulfonic acid]), 20; CaCl2, 1; KCl 5; NaCl, 145; MgSO4, 0.5; NaHCO3, 25; K2HPO4, 1.4; glucose, 10; and Fura-2 AM 91-(2-5′-carboxyoxazol-2′-yl)-6-aminobenzofuran-5oxy-(2′-amino-5′-methylphenoxy)ethane-N,N,N′,N′-tetraaecetic acid acetomethoxy ester), 0.5; at 37° C. at pH7.4, aerated with 95% air and 5% CO2 for 45 minutes. Cells loaded with Fura-2 AM were then washed with a modified Krebs-Heinseleit (KH) buffer containing, in mM: HEPES, 20; CaCl2, 1; KCl, 5; NaCl, 145; MgSO4, 0.5; Na2HPO4, 1; glucose, 5; pH7.4. To check that cleavage of the ester occurred, the excitation spectra after different times of Fura-2 AM incubation were measured.
To measure fluorescence of individual cells, the cover slips were placed in a microscope tissue chamber (Biophysica Technologies, Inc., MD). The chamber consisted of a shallow, sloped compartment made of Teflon with a silicone rubber seal. The cover slips served as the bottom of the chamber. A heater/cooler ring was encased in the silicone rubber which sealed the coverslip in place.

[3] = target: T2, rat bone PTH/PTHrP receptor (Rattus norvegicus, UniProt P25961, E586G); assay: cAMP accumulation, COS cells expressing R15B
T2 construct: expressed in transfected cells; host or cells: COS / COS-7 cells, transient, plasmid R15B (pcDNA I)
T2 sequence (P25961 27-591 E586G): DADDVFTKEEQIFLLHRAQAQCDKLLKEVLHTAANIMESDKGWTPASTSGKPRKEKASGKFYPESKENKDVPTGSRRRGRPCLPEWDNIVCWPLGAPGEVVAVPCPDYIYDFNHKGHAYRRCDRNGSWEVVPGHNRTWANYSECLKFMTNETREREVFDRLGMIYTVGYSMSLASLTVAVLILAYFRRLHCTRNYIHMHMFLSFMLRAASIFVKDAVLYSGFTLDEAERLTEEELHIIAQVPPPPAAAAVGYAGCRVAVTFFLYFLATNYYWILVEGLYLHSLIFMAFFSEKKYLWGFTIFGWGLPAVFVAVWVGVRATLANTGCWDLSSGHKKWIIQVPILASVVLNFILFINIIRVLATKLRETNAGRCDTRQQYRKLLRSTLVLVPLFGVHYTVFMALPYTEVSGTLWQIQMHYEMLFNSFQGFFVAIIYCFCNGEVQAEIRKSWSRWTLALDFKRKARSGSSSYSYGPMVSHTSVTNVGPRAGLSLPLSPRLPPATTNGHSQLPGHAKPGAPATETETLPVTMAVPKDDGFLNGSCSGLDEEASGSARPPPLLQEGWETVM
Protocol: as §1

## [Nle^8,18, Tyr^34]bPTH(1-34)amide
[1]
  cAMP accumulation, PTH(1-34) compared with PTHrP(1-36): to the same extent
[2]
  increase in intracellular free calcium, PTH(1-34) compared with PTHrP(1-36): to the same extent
[3]; COS cells expressing R15B, FIG. 16
  cAMP accumulation: increase cAMP accumulation
[3]; COS-7 cells expressing rat receptor
  cAMP accumulation, PTH(1-34) compared with PTHrP(1-36): to the same extent
